# According to ChEMBL document CHEMBL1129930, “Analogues of methotrexate in rheumatoid arthritis. 2. Effects of 5-deazaaminopterin, 5,10-dideazaaminopterin, and analogues on type II collagen-induced arthritis in mice” (J Med Chem, 1997):
# Columns and labels:
# Mus musculus [1] = assay: Incidence of disease (mouse type II collagen) was scored as the percentage of animals within each experimental group that exhibited joint or limb inflammation on day 23 at intraperitoneal dose of 8 mg/kg; format: functional
# Mus musculus [2] = assay: Incidence of disease (mouse type II collagen) was scored as the percentage of animals within each experimental group that exhibited joint or limb inflammation on day 30 at intraperitoneal dose of 8 mg/kg; format: functional
# Mus musculus [3] = assay: Incidence of disease (mouse type II collagen) was scored as the percentage of animals within each experimental group that exhibited joint or limb inflammation on day 44 at intraperitoneal dose of 8 mg/kg; format: functional
# Mus musculus [4] = assay: Tested for antiinflammatory activity on mouse type II collagen arthritis as Paw swelling of all animals in each group on day 37 at intraperitoneal dose of 8 mg/kg; format: functional
# Mus musculus [5] = assay: Tested for antiinflammatory activity on mouse type II collagen arthritis as Paw swelling of all animals in each group on day 30 at intraperitoneal dose of 8 mg/kg; format: functional
# Mus musculus [6] = assay: Incidence of disease (mouse type II collagen) was scored as the percentage of animals within each experimental group that exhibited joint or limb inflammation on day 37 at intraperitoneal dose of 8 mg/kg; format: functional
# Mus musculus [7] = assay: Tested for antiinflammatory activity on mouse type II collagen arthritis as Paw swelling of all animals in each group on day 44 at intraperitoneal dose of 8 mg/kg; format: functional
# Mus musculus [8] = assay: Tested for antiinflammatory activity on mouse type II collagen arthritis as Paw swelling of all animals in each group on day 23 at intraperitoneal dose of 8 mg/kg; format: functional
# Mus musculus [9] = assay: Incidence of disease (mouse type II collagen) was scored as the percentage of animals within each experimental group that exhibited joint or limb inflammation on day 37 at intraperitoneal dose of 0.75 mg/kg; format: functional
# Mus musculus [10] = assay: Incidence of disease (mouse type II collagen) was scored as the percentage of animals within each experimental group that exhibited joint or limb inflammation on day 23 at intraperitoneal dose of 0.38 mg/kg; format: functional
# Mus musculus [11] = assay: Tested for antiinflammatory activity on mouse type II collagen arthritis as Paw swelling of all animals in each group on day 23 at intraperitoneal dose of 0.75 mg/kg; format: functional
# Mus musculus [12] = assay: Tested for antiinflammatory activity on mouse type II collagen arthritis as Paw swelling of all animals in each group on day 23 at intraperitoneal dose of 1.5 mg/kg; format: functional
# Mus musculus [13] = assay: Incidence of disease (mouse type II collagen) was scored as the percentage of animals within each experimental group that exhibited joint or limb inflammation on day 23 at intraperitoneal dose of 1.5 mg/kg; format: functional
# Mus musculus [14] = assay: Incidence of disease (mouse type II collagen) was scored as the percentage of animals within each experimental group that exhibited joint or limb inflammation on day 37 at intraperitoneal dose of 0.38 mg/kg; format: functional
# Mus musculus [15] = assay: Incidence of disease (mouse type II collagen) was scored as the percentage of animals within each experimental group that exhibited joint or limb inflammation on day 37 at intraperitoneal dose of 3 mg/kg; format: functional
# [16] = Concentration required to inhibit the growth of chang liver cells.; format: functional; details: Homo sapiens
# Mus musculus [17] = assay: Tested for antiinflammatory activity on mouse type II collagen arthritis as Paw swelling of all animals in each group on day 37 at intraperitoneal dose of 6 mg/kg; format: functional
# Mus musculus [18] = assay: Tested for antiinflammatory activity on mouse type II collagen arthritis as Paw swelling of all animals in each group on day 37 at intraperitoneal dose of 0.38 mg/kg; format: functional
# L1210 = assay: Concentration required to inhibit the growth of L1210 cells.; format: functional, cell-based; details: Mus musculus
# Mus musculus [19] = assay: Tested for antiinflammatory activity on mouse type II collagen arthritis as Paw swelling of all animals in each group on day 44 at intraperitoneal dose of 0.75 mg/kg; format: functional
# Mus musculus [20] = assay: Tested for antiinflammatory activity on mouse type II collagen arthritis as Paw swelling of all animals in each group on day 23 at intraperitoneal dose of 3 mg/kg; format: functional
# Mus musculus [21] = assay: Tested for antiinflammatory activity on mouse type II collagen arthritis as Paw swelling of all animals in each group on day 30 at intraperitoneal dose of 1.5 mg/kg; format: functional
# Mus musculus [22] = assay: Incidence of disease (mouse type II collagen) was scored as the percentage of animals within each experimental group that exhibited joint or limb inflammation on day 30 at intraperitoneal dose of 6 mg/kg; format: functional
# Mus musculus [23] = assay: Incidence of disease (mouse type II collagen) was scored as the percentage of animals within each experimental group that exhibited joint or limb inflammation on day 37 at intraperitoneal dose of 1.5 mg/kg; format: functional
# Mus musculus [24] = assay: Incidence of disease (mouse type II collagen) was scored as the percentage of animals within each experimental group that exhibited joint or limb inflammation on day 44 at intraperitoneal dose of 0.75 mg/kg; format: functional
# Mus musculus [25] = assay: Tested for antiinflammatory activity on mouse type II collagen arthritis as Paw swelling of all animals in each group on day 44 at intraperitoneal dose of 1.5 mg/kg; format: functional
# Mus musculus [26] = assay: Incidence of disease (mouse type II collagen) was scored as the percentage of animals within each experimental group that exhibited joint or limb inflammation on day 44 at intraperitoneal dose of 0.38 mg/kg; format: functional
# Mus musculus [27] = assay: Incidence of disease (mouse type II collagen) was scored as the percentage of animals within each experimental group that exhibited joint or limb inflammation on day 30 at intraperitoneal dose of 0.75 mg/kg; format: functional
# Mus musculus [28] = assay: Tested for antiinflammatory activity on mouse type II collagen arthritis as Paw swelling of all animals in each group on day 44 at intraperitoneal dose of 0.38 mg/kg; format: functional
# Mus musculus [29] = assay: Incidence of disease (mouse type II collagen) was scored as the percentage of animals within each experimental group that exhibited joint or limb inflammation on day 44 at intraperitoneal dose of 6 mg/kg; format: functional
# Mus musculus [30] = assay: Tested for antiinflammatory activity on mouse type II collagen arthritis as Paw swelling of all animals in each group on day 37 at intraperitoneal dose of 0.75 mg/kg; format: functional
# Mus musculus [31] = assay: Incidence of disease (mouse type II collagen) was scored as the percentage of animals within each experimental group that exhibited joint or limb inflammation on day 23 at intraperitoneal dose of 6 mg/kg; format: functional
# Mus musculus [32] = assay: Tested for antiinflammatory activity on mouse type II collagen arthritis as Paw swelling of all animals in each group on day 37 at intraperitoneal dose of 3 mg/kg; format: functional
# Mus musculus [33] = assay: Tested for antiinflammatory activity on mouse type II collagen arthritis as Paw swelling of all animals in each group on day 37 at intraperitoneal dose of 1.5 mg/kg; format: functional
# Mus musculus [34] = assay: Incidence of disease (mouse type II collagen) was scored as the percentage of animals within each experimental group that exhibited joint or limb inflammation on day 30 at intraperitoneal dose of 0.38 mg/kg; format: functional
# Mus musculus [35] = assay: Tested for antiinflammatory activity on mouse type II collagen arthritis as Paw swelling of all animals in each group on day 30 at intraperitoneal dose of 0.75 mg/kg; format: functional
# Mus musculus [36] = assay: Incidence of disease (mouse type II collagen) was scored as the percentage of animals within each experimental group that exhibited joint or limb inflammation on day 37 at intraperitoneal dose of 6 mg/kg; format: functional
# Mus musculus [37] = assay: Incidence of disease (mouse type II collagen) was scored as the percentage of animals within each experimental group that exhibited joint or limb inflammation on day 30 at intraperitoneal dose of 3 mg/kg; format: functional
# Mus musculus [38] = assay: Incidence of disease (mouse type II collagen) was scored as the percentage of animals within each experimental group that exhibited joint or limb inflammation on day 44 at intraperitoneal dose of 3 mg/kg; format: functional
# Mus musculus [39] = assay: Tested for antiinflammatory activity on mouse type II collagen arthritis as Paw swelling of all animals in each group on day 30 at intraperitoneal dose of 6 mg/kg; format: functional
# Mus musculus [40] = assay: Tested for antiinflammatory activity on mouse type II collagen arthritis as Paw swelling of all animals in each group on day 23 at intraperitoneal dose of 6 mg/kg; format: functional
# Mus musculus [41] = assay: Tested for antiinflammatory activity on mouse type II collagen arthritis as Paw swelling of all animals in each group on day 30 at intraperitoneal dose of 0.38 mg/kg; format: functional
# Mus musculus [42] = assay: Tested for antiinflammatory activity on mouse type II collagen arthritis as Paw swelling of all animals in each group on day 23 at intraperitoneal dose of 0.38 mg/kg; format: functional
# Mus musculus [43] = assay: Tested for antiinflammatory activity on mouse type II collagen arthritis as Paw swelling of all animals in each group on day 44 at intraperitoneal dose of 3 mg/kg; format: functional
# Mus musculus [44] = assay: Tested for antiinflammatory activity on mouse type II collagen arthritis as Paw swelling of all animals in each group on day 44 at intraperitoneal dose of 6 mg/kg; format: functional
# Mus musculus [45] = assay: Incidence of disease (mouse type II collagen) was scored as the percentage of animals within each experimental group that exhibited joint or limb inflammation on day 23 at intraperitoneal dose of 0.75 mg/kg; format: functional
# Mus musculus [46] = assay: Incidence of disease (mouse type II collagen) was scored as the percentage of animals within each experimental group that exhibited joint or limb inflammation on day 30 at intraperitoneal dose of 1.5 mg/kg; format: functional
# Mus musculus [47] = assay: Incidence of disease (mouse type II collagen) was scored as the percentage of animals within each experimental group that exhibited joint or limb inflammation on day 44 at intraperitoneal dose of 1.5 mg/kg; format: functional
# Mus musculus [48] = assay: Incidence of disease (mouse type II collagen) was scored as the percentage of animals within each experimental group that exhibited joint or limb inflammation on day 23 at intraperitoneal dose of 3 mg/kg; format: functional
# Mus musculus [49] = assay: Tested for antiinflammatory activity on mouse type II collagen arthritis as Paw swelling of all animals in each group on day 30 at intraperitoneal dose of 3 mg/kg; format: functional
# Mus musculus [50] = assay: Tested for antiinflammatory activity on mouse type II collagen arthritis as Paw swelling of all animals in each group on day 44 at intraperitoneal dose of 1.50 mg/kg; format: functional; details: dose 1.5 mg/kg
# Mus musculus [51] = assay: Tested for antiinflammatory activity on mouse type II collagen arthritis as Paw swelling of all animals in each group on day 23 at intraperitoneal dose of 1.50 mg/kg; format: functional; details: dose 1.5 mg/kg
# Mus musculus [52] = assay: Tested for antiinflammatory activity on mouse type II collagen arthritis as Paw swelling of all animals in each group on day 30 at intraperitoneal dose of 1.50 mg/kg; format: functional; details: dose 1.5 mg/kg
# Mus musculus [53] = assay: Tested for antiinflammatory activity on mouse type II collagen arthritis as Paw swelling of all animals in each group on day 37 at intraperitoneal dose of 1.50 mg/kg; format: functional; details: dose 1.5 mg/kg
structure (smiles),measurement,setting,value
Nc1nc(N)c2cc(CCc3ccc(C(=O)NC(CCC(=O)O)C(=O)O)s3)cnc2n1 (stereo unspecified),Animals,Mus musculus [1],0%
same,Animals,Mus musculus [2],25%
same,Animals,Mus musculus [3],88%
same,Paw swelling,Mus musculus [4],2.6 mm
same,Paw swelling,Mus musculus [5],2.19 mm
same,Animals,Mus musculus [6],88%
same,Paw swelling,Mus musculus [7],2.63 mm
same,Paw swelling,Mus musculus [8],2.13 mm
CCCc1c(CNc2ccc(C(=O)NC(CCC(=O)O)C(=O)O)cc2)cnc2nc(N)nc(N)c12 (stereo unspecified),Animals,Mus musculus [9],0%
same,Animals,Mus musculus [10],0%
same,Paw swelling,Mus musculus [11],2.13 mm
same,Paw swelling,Mus musculus [12],2.12 mm
same,Animals,Mus musculus [13],0%
same,Animals,Mus musculus [14],75%
same,Animals,Mus musculus [15],14%
same,IC50,[16],8.2 nM
same,Paw swelling,Mus musculus [17],2.22 mm
same,Paw swelling,Mus musculus [18],2.22 mm
same,IC50,L1210,6.5 nM
same,Paw swelling,Mus musculus [19],2.22 mm
same,Paw swelling,Mus musculus [20],2.12 mm
same,Paw swelling,Mus musculus [21],2.14 mm
same,Animals,Mus musculus [22],25%
same,Animals,Mus musculus [23],0%
same,Animals,Mus musculus [24],50%
same,Paw swelling,Mus musculus [25],2.15 mm
same,Animals,Mus musculus [26],88%
same,Animals,Mus musculus [27],0%
same,Paw swelling,Mus musculus [28],2.57 mm
same,Animals,Mus musculus [29],0%
same,Paw swelling,Mus musculus [30],2.16 mm
same,Animals,Mus musculus [31],0%
same,Paw swelling,Mus musculus [32],2.23 mm
same,Paw swelling,Mus musculus [33],2.19 mm
same,Animals,Mus musculus [34],0%
same,Paw swelling,Mus musculus [35],2.17 mm
same,Animals,Mus musculus [36],25%
same,Animals,Mus musculus [37],14%
same,Animals,Mus musculus [38],29%
same,Paw swelling,Mus musculus [39],2.23 mm
same,Paw swelling,Mus musculus [40],2.13 mm
same,Paw swelling,Mus musculus [41],2.13 mm
same,Paw swelling,Mus musculus [42],2.11 mm
same,Paw swelling,Mus musculus [43],2.2 mm
same,Paw swelling,Mus musculus [44],2.11 mm
same,Animals,Mus musculus [45],0%
same,Animals,Mus musculus [46],0%
same,Animals,Mus musculus [47],0%
same,Animals,Mus musculus [48],0%
same,Paw swelling,Mus musculus [49],2.24 mm
Nc1nc(N)c2cc(CNc3ccc(C(=O)NC(CCC(=O)O)C(=O)O)cc3)cnc2n1 (stereo unspecified),Animals,Mus musculus [9],38%
same,Paw swelling,Mus musculus [11],2.14 mm
same,Animals,Mus musculus [13],0%
same,Paw swelling,Mus musculus [50],2.21 mm
same,Paw swelling,Mus musculus [51],2.1 mm
same,Paw swelling,Mus musculus [52],2.16 mm
same,Paw swelling,Mus musculus [53],2.17 mm
same,Paw swelling,Mus musculus [19],2.28 mm
same,Animals,Mus musculus [23],12%
same,Animals,Mus musculus [24],62%
same,Animals,Mus musculus [27],12%
same,Paw swelling,Mus musculus [30],2.23 mm
same,Paw swelling,Mus musculus [35],2.19 mm
same,Animals,Mus musculus [45],0%
same,Animals,Mus musculus [46],12%
same,Animals,Mus musculus [47],25%
